#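 48-hour exposure; five concentrations; linearly interpolated endpoints. The concentration for full growth arrest is given as TGI.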
# How the values were obtained:
# Assay in all cases: growth of human tumour cells (NCI), 48 h
# [1] = tested on: MCF7 breast
# [2] = tested on: HOP-62 NSCLC
# [3] = tested on: UACC-257 melanoma
# [4] = tested on: SF-268 CNS
# [5] = tested on: HL-60(TB) leukemia
# [6] = tested on: MDA-N
# [7] = tested on: MOLT-4 leukemia
# [8] = tested on: DMS 273 small cell lung
# [9] = tested on: NCI-H23 lung
# [10] = tested on: HCC-2998 colon
# [11] = tested on: IGROV1 ovarian
# [12] = tested on: NCI-H226 lung
# [13] = tested on: COLO 205 colon
# [14] = tested on: HT29 colon
# [15] = tested on: M14 melanoma
# [16] = tested on: A549 NSCLC
# [17] = tested on: LXFL 529 NSCLC
# [18] = tested on: RPMI-8226 leukemia
# [19] = tested on: XF 498 CNS
# [20] = tested on: SNB-19 CNS
# [21] = tested on: SF-539 CNS
# [22] = tested on: SK-MEL-28 melanoma
# [23] = tested on: NCI-H522 lung
# [24] = tested on: LOX IMVI melanoma
# [25] = tested on: DU-145 prostate
# [26] = tested on: BT-549 breast
# [27] = tested on: A498 renal
# [28] = tested on: SW-620 colon
# [29] = tested on: T-47D breast
# [30] = tested on: PC-3 prostate
# [31] = tested on: SNB-78 CNS
# [32] = tested on: OVCAR-5 ovarian
# [33] = tested on: U251 CNS
# [34] = tested on: EKVX NSCLC
# [35] = tested on: SK-MEL-5 melanoma
# [36] = tested on: OVCAR-4 ovarian
# [37] = tested on: OVCAR-3 ovarian
# [38] = tested on: MDA-MB-231 breast
# [39] = tested on: 786-0 renal
# [40] = tested on: KM12 colon
# [41] = tested on: SK-OV-3 ovarian
# [42] = tested on: DLD-1 colon
# [43] = tested on: RXF 393 renal
# [44] = tested on: KM20L2 colon
# [45] = tested on: SF-295 CNS
# [46] = tested on: M19-MEL melanoma
# [47] = tested on: OVCAR-8 ovarian
# [48] = tested on: UO-31 renal
# [49] = tested on: SN12C renal
# [50] = tested on: UACC-62 melanoma
# [51] = tested on: TK-10 renal
# [52] = tested on: HCT-116 colon
# [53] = tested on: CCRF-CEM leukemia
# [54] = tested on: K-562 leukemia
# [55] = tested on: HCT-15 colon
# [56] = tested on: DMS 114 small cell lung
# [57] = tested on: ACHN renal
# [58] = tested on: MALME-3M melanoma
# [59] = tested on: SNB-75 CNS
# [60] = tested on: NCI-H460 lung
# [61] = tested on: HOP-18 NSCLC
smiles,measurement,setting,value
Cc1cc(NC(=O)NC(=O)c2ccccc2[N+](=O)[O-])ccc1Oc1ncc(Cl)cn1,TGI,[1],> 100 µM
same,TGI,[2],19.4 µM
same,TGI,[3],> 100 µM
same,TGI,[4],> 82.3 µM
same,TGI,[5],0.137 µM
same,TGI,[6],29.5 µM
same,TGI,[7],> 100 µM
same,TGI,[8],0.365 µM
same,TGI,[9],> 80.5 µM
same,TGI,[10],0.6 µM
same,TGI,[11],98.9 µM
same,TGI,[12],12.8 µM
same,TGI,[13],> 20 µM
same,TGI,[14],3.38 µM
same,TGI,[15],35.7 µM
same,TGI,[16],> 100 µM
same,TGI,[17],24.3 µM
same,TGI,[18],> 100 µM
same,TGI,[19],17.9 µM
same,TGI,[20],> 66.2 µM
same,TGI,[21],9.5 µM
same,TGI,[22],98 µM
same,TGI,[23],0.201 µM
same,TGI,[24],> 100 µM
same,TGI,[25],> 100 µM
same,TGI,[26],91.5 µM
same,TGI,[27],19.6 µM
same,TGI,[28],> 100 µM
same,TGI,[29],> 100 µM
same,TGI,[30],94.5 µM
same,TGI,[31],62.6 µM
same,TGI,[32],> 100 µM
same,TGI,[33],4.42 µM
same,TGI,[34],> 100 µM
same,TGI,[35],3.32 µM
same,TGI,[36],31.3 µM
same,TGI,[37],1.34 µM
same,TGI,[38],26.9 µM
same,TGI,[39],26.4 µM
same,TGI,[40],13 µM
same,TGI,[41],24.1 µM
same,TGI,[42],43.7 µM
same,TGI,[43],0.147 µM
same,TGI,[44],0.44 µM
same,TGI,[45],29.3 µM
same,TGI,[46],> 100 µM
same,TGI,[47],> 37.9 µM
same,TGI,[48],75.6 µM
same,TGI,[49],> 81.6 µM
same,TGI,[50],> 31.6 µM
same,TGI,[51],> 65.2 µM
same,TGI,[52],18 µM
same,TGI,[53],> 100 µM
same,TGI,[54],> 100 µM
same,TGI,[55],> 100 µM
same,TGI,[56],> 100 µM
same,TGI,[57],42.1 µM
same,TGI,[58],43.8 µM
same,TGI,[59],1.59 µM
same,TGI,[60],18.8 µM
same,TGI,[61],91.1 µM
